Source: US20250320204A1 (RIBOSCIENCE LLC, priority 2023, published 2025)

Columns and labels:
[1] = biological target: T1, ENPP1 (Homo sapiens, UniProt P22413); test: Measurement of pNP-TMP hydrolysis by ENPP1; assay type: biochemical; conditions: pNP-TMP substrate 500 μM, Km 232 μM; Ki from IC50 by Cheng-Prusoff
T1 sequence (P22413 1-925): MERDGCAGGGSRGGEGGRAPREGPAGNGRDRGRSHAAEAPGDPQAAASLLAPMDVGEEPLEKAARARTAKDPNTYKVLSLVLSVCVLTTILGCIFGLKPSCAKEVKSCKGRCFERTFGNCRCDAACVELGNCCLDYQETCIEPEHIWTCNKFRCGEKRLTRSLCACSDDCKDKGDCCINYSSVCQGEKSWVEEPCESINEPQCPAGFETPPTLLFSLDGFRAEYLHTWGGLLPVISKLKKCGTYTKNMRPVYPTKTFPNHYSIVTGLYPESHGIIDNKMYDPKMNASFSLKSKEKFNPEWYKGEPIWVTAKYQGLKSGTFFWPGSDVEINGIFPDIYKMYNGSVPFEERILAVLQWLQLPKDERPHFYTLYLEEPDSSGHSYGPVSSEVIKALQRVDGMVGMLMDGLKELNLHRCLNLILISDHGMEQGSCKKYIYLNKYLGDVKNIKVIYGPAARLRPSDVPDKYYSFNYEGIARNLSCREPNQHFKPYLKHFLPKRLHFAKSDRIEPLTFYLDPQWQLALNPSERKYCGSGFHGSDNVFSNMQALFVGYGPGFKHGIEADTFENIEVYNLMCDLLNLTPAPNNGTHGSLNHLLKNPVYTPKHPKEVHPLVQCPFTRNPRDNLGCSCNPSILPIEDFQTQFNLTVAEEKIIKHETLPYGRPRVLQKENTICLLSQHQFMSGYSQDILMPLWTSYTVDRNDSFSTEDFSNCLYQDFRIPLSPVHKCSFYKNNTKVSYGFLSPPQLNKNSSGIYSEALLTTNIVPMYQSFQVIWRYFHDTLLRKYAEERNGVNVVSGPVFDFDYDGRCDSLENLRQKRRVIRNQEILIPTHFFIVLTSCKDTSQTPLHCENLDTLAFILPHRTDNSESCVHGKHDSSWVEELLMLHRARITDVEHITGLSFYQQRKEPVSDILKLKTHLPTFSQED
Protocol: Measurement of pNP-TMP hydrolysis by ENPP1
p-Nitrophenyl thymidine 5′-monophosphate (pNP-TMP) is a synthesized substrate for ENPP1. The ENPP1 enzyme activity assay with pNP-TMP substrate was conducted as follows:
First, in a 60 μl reaction, 7.5 ng purified ENPP1 was mixed with 1.2 μl compounds of Formula (I) (test compound) ranging from 13.7 nM to 10 μM. Incubation of ENPP1 with compounds was set at 25° C. for 10 min. Reactions with DMSO only (with ENPP1 but no compound) gave the fastest reaction (MAX Activity). For each compound dilution, wells with assay buffer (50 mM Tris -HCl, pH8.8, 250 mM NaCl, 0.1 mg/ml BSA) and test compounds but no ENPP1 were included as controls for the subtraction of test compound derived absorbance at 405 nm.
Second, after 10 minutes incubation of ENPP1 and test compound, the assay was initiated by transferring 50 μl of the above mentioned ENPP1/test compound reaction into 50 μl of 1 mM pNP-TMP in assay buffer results in a 100 μl total reaction in non-binding surface clear bottom 96 well plates. Absorbance at 405 nm was recorded immediately in kinetic mode by PerkinElmer 2300 Enspire multimode plate reader.
For each inhibitor, the specific ENPP1 activity was calculated using the following equation: ENPP1 activity (pmol/min/μg)=Adjusted Vmax (OD405 nm/min) X conversion factor (pmol/OD405 nm)/amount of enzyme (μg)
Adjusted Vmax=V0X (Km+(S))/(S). In this assay, Km=232 μM, (S)=500 μM. Adjusted Vmax=1.464 X V0.
V0=(OD405 nm with ENPP1-OD405 nm ENPP1 blank)/minutes. OD405 nm was plotted, with blank subtracted, against time (minutes), the initial linear rate is V0.
The conversion factor (pmol/OD405 nm), was determined by plotting the amount of standard, 4-Nitrophenol (Sigma -Aldrich, Catalog #241326), against absorbance at 405 nm. The slope is the conversion factor. The percent ENPP1 activity for each sample was calculated using the following equation: […]
To determine the IC50 for each compound, compound concentration values and percent enzyme activity values were inserted into GraphPad Prism (GraphPad Prism version 9.0 for Windows, GraphPad Software, La Jolla California USA, www.graphpad.com), and Prism's Transform analysis was used to convert the x-axis values (compound concentration) to logarithms. A sigmoidal variable slope nonlinear regression analysis was performed using the following equation: Y=Bottom+ (Top-Bottom)/(1+10^((Log IC50″X) *HillSlope)).
Ki values for each compound were calculated from the observed IC50 from GraphPad analysis using the Cheng-Prusoff equation: Ki=IC50/(1+(S)/KM). (S) here is 500 μM and KM is determined to be 232 μM.

[2] = biological target: T1, ENPP1; test: Measurement of 2′3′-cGAMP hydrolysis by ENPP1 (AMP-Glo); assay type: biochemical; conditions: 2′3′-cGAMP substrate 100 μM, KM 32 μM; Ki from IC50 by Cheng-Prusoff
Protocol: Measurement of 2′3′-cGAMP hydrolysis by ENPP1
The AMP-Glo assay kit from Promega (catalog number V5012) was used for measurement of 5′-AMP production.
First, an ENPP1 and test compound incubation was set up in assay buffer (50 mM Tris -HCl, pH8.8, 250 mM NaCl, 0.1 mg/ml BSA) with following conditions: ENPP1 concentration: 1.25 nM; test compound concentration ranging from 137 pM to 100 nM. The incubation was carried out at 25° C. for 10 min.
Second, after the 10-minute incubation of ENPP1 and test compound, prepare on a separate plate, 15 μl of the substrate 2′3′-cGAMP at 200 μM in assay buffer. Then, 15 μl of the ENPP1/Compound incubation was transferred to the 200 μM 2′3′-cGAMP solution to initiate the reaction. The 30 μl mixture was incubated for 30 min at 25° C. In all these assays a DMSO control without compound was included which gave the maximum 5′-AMP production (MAX RLU). After 30 min the reaction was stopped by heating at 90° C. for 3 min.
Third, the Promega AMP-Glo kit was used to detect 5′-AMP production as a measurement of ENPP1 enzyme activity. Briefly, 10 μl of the above mentioned 30 μl total reaction per sample was transferred into 384 well white solid assay plate for measurement of 5′-AMP production. For each well, 10 μl of AMP-Glo Reagent I was added, mixed well, and incubated for 1 hour at 25° C. At this time AMP detection solution was prepared and 20 μl was added per well, and the resulting solution was incubated for 1 hr at 25° C. Duplicates were run for each inhibitor concentration. Luminescence signal (relative luminescence units, RLU) was recorded using a PerkinElmer 2300 Enspire multimode plate reader.
The % inhibition was calculated using the following equation: % inhibition=(MAX RLU-sample RLU)/MAX RLU X 100%.
IC50 values of compounds were determined by loading compound concentration data and percent inhibition values into GraphPad Prism (GraphPad Prism version 7.0 for
Windows, GraphPad Software, La Jolla California USA, www.graphpad.com) and conducted a Sigmoidal variable slope nonlinear regression fitting.
Ki values for each compound were calculated from the observed IC50 from GraphPad analysis using the Cheng-Prusoff equation: Ki=IC50/(1+ (S)/KM). (S) here is 100μ M and KM is 32 μm.

[3] = tested on: HGS tumor model; test: Anti-tumor activity in HGS tumor model; assay type: in vivo; conditions: animals treated with 20/kg of compound, day 42 after inoculation
Excerpt: […]

| Compound | Ki [1] [nM] | Ki [2] [nM] | tumor size [3] [mm3] |
| --- | --- | --- | --- |
| N=S(=O)(c1cccc(COc2ccnc3c(OCF)nccc23)c1)C1CC1 (racemic) [Example 41, cyclopropyl(3-(((8-(fluoromethoxy)-1,7-naphthyridin-4-yl)oxy)methyl)phenyl)-(imino)-lambda6-sulfanone] | < 10 | < 1 | – |
| CS(=N)(=O)CC1(O)CCN(c2ccnc3c(OCF)nccc23)CC1 (racemic) [Example 47, ((1-(8-(fluoromethoxy)-1,7-naphthyridin-4-yl)-4-hydroxypiperidin-4-yl)methyl) (imino)(methyl)-lambda6-sulfanone] | – | < 1 | – |
| COc1nccc2c(OCc3cc(F)cc(S(=N)(=O)C4CC4)c3)ccnc12 (racemic) [Example 66, cyclopropyl(3-fluoro-5-(((8-methoxy-1,7-naphthyridin-4-yl)oxy)methyl)-phenyl) (imino)-lambda6-sulfanone] | – | < 1 | – |
| CS(=N)(=O)c1cccc(COc2ccnc3c(OCF)nccc23)c1 (racemic) [Example 77, (3-(((8-(fluoromethoxy)-1,7-naphthyridin-4-yl)oxy)methyl)phenyl) (imino)(methyl)-lambda6-sulfanone] | < 10 | < 1 | – |
| COc1nccc2c(N3CC4(CC(CS(C)(=N)=O)C4)C3)ncnc12 (single isomer, unassigned) [Example 2a, imino ((2-(8-methoxypyrido[3,4-d]pyrimidin-4-yl)-2-azaspiro[3.3]heptan-6-yl)methyl)(methyl)-lambda6-sulfanone] | < 10 | < 1 | – |
| N=[S@@](=O)(c1cccc(COc2ccnc3c(OCF)nccc23)c1)C1CC1 (single isomer, unassigned) [Example 43] | < 10 | < 1 | – |
| C[S@](=N)(=O)CC1(O)CCN(c2ccnc3c(OCF)nccc23)CC1 (single isomer, unassigned) [Example 49] | < 10 | < 1 | – |
| COc1nccc2c(OCc3cc(F)cc([S@@](=N)(=O)C4CC4)c3)ccnc12 (single isomer, unassigned) [Example 67] | < 10 | < 1 | – |
| COc1nccc2c(OCc3cc(F)cc([S@@](C)(=N)=O)c3)ccnc12 (single isomer, unassigned) [Example 71] | < 10 | < 1 | – |
| C[S@](=N)(=O)c1cccc(COc2ccnc3c(OCF)nccc23)c1 (single isomer, unassigned) [Example 79] | < 10 | < 1 | – |
| C=CC(=O)N1CCN(CCCn2c(=O)c(-c3c(Cl)c(OC)cc(OC)c3Cl)cc3cnc(NC)nc32)CC1 [8-(3-(4-acryloylpiperazin-1-yl)propyl)-6-(2,6-dichloro-3,5-dimethoxyphenyl)-2-(methylamino)pyrido (2,3-d)pyrimidin-7 (8H)-one] | – | – | 55 |
| CS(=N)(=O)c1cccc(COc2ccnc3cnccc23)c1 (stereo not shown) [Example 9] | < 10 | 1 to 5 | – |
| COc1nccc2c(OCc3cccc([S@@](=N)(=O)C4CC4)c3)ccnc12 [Example 17b, (S)-Cyclopropyl(imino)(3-(((8-methoxy-1,7-naphthyridin-4-yl)oxy)methyl)phenyl)-lamba6-sulfanone] | < 10 | < 1 | – |
| COc1nccc2c(N3CCC(O)(CS(C)(=N)=O)CC3)ccnc12 (stereo not shown) [Example 25] | – | < 1 | – |
| N=S(=O)(c1cc(F)cc(COc2ccnc3c(OCF)nccc23)c1)C1CC1 (stereo not shown) [Example 69, cyclopropyl(3-fluoro-5-(((8-(fluoromethoxy)-1,7-naphthyridin-4-yl)oxy)-methyl)phenyl) (imino)-lambda6-sulfanone] | < 10 | < 1 | – |
| CS(=N)(=O)c1cc(F)cc(COc2ccnc3c(OCF)nccc23)c1 (stereo not shown) [Example 72, (3-fluoro-5-(((8-(fluoromethoxy)-1,7-naphthyridin-4-yl)oxy)methyl)phenyl)-(imino)(methyl)-lambda6-sulfanone] | – | < 1 | – |
| COc1nccc2c(OCc3cccc([S@@](=N)(=O)C(C)(C)C)c3)ccnc12 [Example 74, (S)-tert-butyl(imino) (3-(((8-methoxy-1,7-naphthyridin-4-yl)oxy)methyl)phenyl)-lambda6-sulfanone] | < 10 | – | – |
| COc1nccc2c(OCc3cccc([S@@](C)(=N)=O)c3)ccnc12 [Example 75, (S)-imino (3-(((8-methoxy-1,7-naphthyridin-4-yl)oxy)methyl)phenyl)(methyl)-lambda6-sulfanone] | < 10 | – | – |
| COc1nccc2c(OCc3cccc([S@](=N)(=O)C(C)(C)C)c3)ccnc12 [Example 76, (R)-tert-butyl(imino) (3-(((8-methoxy-1,7-naphthyridin-4-yl)oxy)methyl)phenyl)-lambda6-sulfanone] | 10 to 100 | – | – |
| COc1nccc2c(OCc3cccc([S@@](=N)(=O)C(C)C)c3)ccnc12 [Example 84, (S)-imino(isopropyl)(3-(((8-methoxy-1,7-naphthyridin-4-yl)oxy)methyl)phenyl)-lambda6-sulfanone] | < 10 | – | – |
